Measurements taken from article PMC4995097, “Talin-KANK1 interaction controls the recruitment of cortical microtubule stabilizing complexes to focal adhesions” (eLife, 2016).

Legend:
HA-KANK1 = experiment: Streptavidin pull down of BioGFP-talin1 constructs with HA-KANK1, Western blot; assay type: binding; conditions: HEK293T cells
From the text: BioGFP-tagged KANK1 mutants were constructed using PCR and pBioGFP-C1 vector as previously described ([van der Vaart et al., 2013]). Rescue constructs for BioGFP-tagged KANK1 were either based on the version previously described ([van der Vaart et al., 2013]) or a version obtained by PCR-based mutagenesis of the sequence […] to […]. mCherry-tagged paxillin construct was made by replacing GFP from pQC-GPXN ([Bouchet et al., 2011]) by mCherry (pmCherry-C1, Clontech). TagRFP-tagged paxillin construct was made by PCR-based amplification and cloning in pTagRFP-T-C1 (kind gift from Y. Mimori-Kiyosue, Riken Institute, Japan). HA-tagged KANK1 construct was generated by cloning KANK1 coding sequence into pMT2-SM-HA (gift of C. Hoogenraad, Utrecht University, The Netherlands). pLVX-IRES-Neo (pLVIN) vectors was constructed by cloning the IRES-neomycin resistance cassette from the pQCXIN plasmid (Clontech) into the pLVX-IRES-Puro plasmid (Clontech). […]
Streptavidin-based pull down assays of biotinylated proteins expressed using pBioGFP-C1 constructs transfected in HEK293T cells was performed and analyzed as previously described ([van der Vaart et al., 2013]). […] For RP-nanoLC-MS/MS, samples were resuspended in 10% formic acid (FA) / 5% DMSO and was analyzed using a Proxeon Easy-nLC100 (Thermo Scientific) connected to an Orbitrap Q-Exactive mass spectrometer. […]

[1] = test system: focal adhesions in HeLa cells; experiment: FA area; assay type: cell-based, human; parameters: AV areaFA: unit not given here; conditions: HeLa, TLN1-KD, mTLN1 rescue; mean of per-cell averages, Count 12
Experimental: HeLa Kyoto cell line was described previously ([Lansbergen et al., 2006]; [Mimori-Kiyosue et al., 2005]). HEK293T cells were purchased from ATCC; culture and transfection of DNA and siRNA into these cell lines was performed as previously described ([van der Vaart et al., 2013]). HaCaT cells were purchased at Cell Line Service (Eppelheim, Germany) and cultured according to manufacturer’s instructions. The cell lines were routinely checked for mycoplasma contamination using LT07-518 Mycoalert assay (Lonza, Switzerland).The identity of the cell lines was monitored by immunofluorescence-staining-based analysis with multiple markers. Blebbistatin was purchased from Enzo Life Sciences and used at 50 μM. […]
For presentation, images were adjusted for brightness and processed by Gaussian blur and Unsharp mask filter using ImageJ 1.47v (NIH). Fluorescence profiles are values measured by line scan analysis in ImageJ, normalized by background average fluorescence, expressed as a factor of the baseline value obtained for individual channel and plotted as a function of maximum length factor of the selection line (distance ratio). Protein clustering at the cell edge is the ratio of the total fluorescence in the first 5 μm from the cell edge to the next 5 μm measured by line scan analysis in ImageJ after thresholding for cell outline marking and out-of-cell region value assigned to zero. […]

## GFP-talin1-G1404L: GFP-tagged mouse talin1 with single point mutation G1404L
HA-KANK1
  interaction of talin1 constructs with KANK1 (in words): abrogated the interaction of full-length talin1 or its R7 fragment with full-length KANK1
[1]
  AV areaFA: 1.146
